According to ChEMBL document CHEMBL1157944, “Phytotoxic withanolides from Jaborosa rotacea” (J Nat Prod, 2006):
Activity calls are given as the source filed them. The rule behind the calls is not given here.

Experiments:
Format in all cases: functional, organism-based
[1] = test system: Lactuca sativa; assay: Phytotoxicity against Lactuca sativa assessed as inhibition of radicle growth at 50 ug/ml
[2] = test system: Lactuca sativa; assay: Phytotoxicity against Lactuca sativa assessed as inhibition of germination at 50 ug/ml
[3] = test system: Lactuca sativa; assay: Phytotoxicity against Lactuca sativa assessed as inhibition of emergence rate index at 50 ug/ml
[4] = test system: Phalaris canariensis; assay: Phytotoxicity against Phalaris canariensis assessed as inhibition of radicle growth at 50 ug/ml
[5] = test system: Phalaris canariensis; assay: Stimulation of radicle growth in Phalaris canariensis at 50 ug/ml

Question: With `CC1=C(C)C(=O)O[C@]2(C1)O[C@@]1(O)C[C@H]3[C@@H](C[C@H](Cl)[C@]4(O)CC=CC(=O)[C@]34C)[C@@H]3CC[C@@](O)([C@@H]2C)[C@]31C` as the compound, how does the Activity [1] read?
Answer: Active

Question: What about the Activity [2] of the same compound?
Answer: Active

Question: And the Activity [3]?
Answer: Active

Question: For `CC1=C(C)C(=O)O[C@]2(C1)O[C@@]1(O)C[C@H]3[C@@H](C[C@@H](O)[C@@]4(Cl)CC=CC(=O)[C@]34C)[C@@H]3CC[C@@](O)([C@@H]2C)[C@]31C`, which Activity [4] is on record?
Answer: Active

Question: Which Activity [5] does the source give for `CC1=C(C)C(=O)O[C@]2(C1)O[C@@]1(O)C[C@H]3[C@@H](C[C@@H](O)C4=CC=CC(=O)[C@@]43C)[C@@H]3CC[C@@](O)([C@@H]2C)[C@]31C` here?
Answer: Active

Question: Which Activity [5] does the source give for `CC1=C(C)[C@H]2C(=O)[C@@H](C)[C@]3(O)CC[C@H]4[C@@H]5C[C@@H](O)[C@@]6(O)CC=CC(=O)[C@]6(C)[C@H]5C[C@@]2(OC1=O)[C@@]43C` here?
Answer: Active
